# Data reported in article PMC7066135, “The lipoprotein Pal stabilises the bacterial outer membrane during constriction by a mobilisation-and-capture mechanism” (Nature Communications, 2020).
# Test system: Pal-mCherry accumulation at the septum
# Assay: TIRFM of Pal-mCherry accumulation at the division septum
# Type: cell-based
# Details: dividing E. coli cells, mutant TolB; average of 30 cells
# Method: Overnight supplemented M9-glucose (2 mM MgSO4, 0.1 mM CaCl2, 0.4% (w/v) D-glucose) cultures were diluted in fresh medium with appropriate antibiotics and IPTG for strains expressing TolA from plasmids. Cultures were grown at 37 °C to OD600 0.3. Cells were centrifuged at 7000 × g for 1 min, resuspended in 1 ml of fresh media and treated with CCCP (0.1 mM, RT for 5 min, Sigma #C2759) for PMF decoupling, sodium azide (50 µg ml^−1, RT for 30 min, Sigma #S2002) for ATPase inhibition or chloramphenicol (30 µg ml^−1, 37 °C for 30 min, Sigma #C0378) for translation inhibition. […]
# Live cells were imaged using an Oxford NanoImager (ONI) superresolution microscope equipped with four laser lines (405/473/561/640 nm) and ×100 oil immersion objective (Olympus 1.49 NA). Pal-mCherry fluorescence images were acquired by scanning a 50 µm × 80 µm area with a 561 nm laser (0.2 mW) set at 49° incidence angle (100 ms exposition), resulting in a 512 × 1024 pixel image. […] Images were recorded by NimOS software associated with the ONI instrument. If not noted otherwise, each image was acquired as a 100- or 200-frame stack for brightfield and fluorescence channels, respectively. […]
# All images were analysed using ImageJ software. Fluorescence distribution along x-axis of cells was determined by the plot profile function with a line width of 4 points for TIRFM images and 40 or 80 for FRAP images. […]
substance,measurement,value
"TolB^AAA: Alanine-substitution of three key hydrophobic residues in E. coli TolB (Ile25Ala, Val26Ala, Ile27Ala)",Pal-mCherry accumulation at division sites,abolishes Pal-mCherry accumulation at the septum
